Assay results published in patent publication US20050163835A1, “Pharmaceutical formulation of iressa comprising a water-soluble cellulose derivative” (AstraZeneca AB, priority 2002, published 2005).

Key:
[1] = pH-dependent aqueous solubility of the Agent; type: physicochemical; details: free-base form
[2] = pH shift dissolution (precipitation) test; type: physicochemical
Protocol: The formulations described in the examples above were dissoluted in media comprising 500 ml 0.07N HCl (approximately pH 1.5) and sodium chloride (0.2% w/v) for one hour at 37° C. (paddle speed 100 rpm). A 5 ml sample was taken at 60 minutes and the media replaced.
10 ml of a 2.5M KH2PO4/16.72% (w/v) NaOH solution was then added to shift the pH to 6.5. 5ml samples were then removed with a plastic syringe at 2, 5, 15, 30, 45 and 60 minutes after pH adjustment and media replaced after every sampling time point. Each sample was centrifuged (14,000 rpm) at ambient temperature for 15 minutes and then analysed by HPLC using the following conditions:

What does the source list for `COc1cc2ncnc(Nc3ccc(F)c(Cl)c3)c2cc1OCCCN1CCOCC1` [Agent, 4-(3′-chloro-4′-fluoroanilino)-7-methoxy-6-(3-morpholinopropoxy)quinazoline]?
solubility in aqueous media ([1]; above pH 7): practically insoluble; aqueous solvent required to dissolve 1 g of Agent ([1]; pH 6): ≥ 10000 mL; % Agent in solution at 2 mins after pH adjustment to pH 6.5 ([2]; 2 mins after shift from pH 1.5 to pH 6.5, HPLC of centrifuged sample): 6.5%; % Agent in solution at 5 mins after pH adjustment to pH 6.5 ([2]; 5 mins after shift from pH 1.5 to pH 6.5, HPLC of centrifuged sample): 6.9%; % Agent in solution after 60 mins in acidic media (~pH 1.5) ([2]; 500 ml 0.07N HCl, 0.2% w/v NaCl, 37° C., before pH shift, HPLC): 102.6%
